Structures can show the parent of a compound that is named as a salt.
Tests used:
[1] = biological target: baculovirus-expressed ALK (Homo sapiens, UniProt Q9UM73); experiment: ALK kinase inhibition, TRF/ELISA; type: biochemical; conditions: read-out: ALK Potency
Method in brief: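 Plates were coated with GST-PLC-γ substrate (10 μg/mL) and the reaction was started with 30 ng/mL ALK, running 15 min at 37° C. Phosphotyrosine was detected by time-resolved fluorescence with Eu-labeled PT66 antibody. IC50s came from variable-slope sigmoidal fits of percent inhibition versus log concentration.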

[2] = biological target: baculovirus-expressed JAK2 kinase (Homo sapiens, UniProt O60674); experiment: biochemical; conditions: 0.2 μM ATP; read-out: JAK2 Potency
baculovirus-expressed JAK2 kinase, sequence (O60674 whole entry): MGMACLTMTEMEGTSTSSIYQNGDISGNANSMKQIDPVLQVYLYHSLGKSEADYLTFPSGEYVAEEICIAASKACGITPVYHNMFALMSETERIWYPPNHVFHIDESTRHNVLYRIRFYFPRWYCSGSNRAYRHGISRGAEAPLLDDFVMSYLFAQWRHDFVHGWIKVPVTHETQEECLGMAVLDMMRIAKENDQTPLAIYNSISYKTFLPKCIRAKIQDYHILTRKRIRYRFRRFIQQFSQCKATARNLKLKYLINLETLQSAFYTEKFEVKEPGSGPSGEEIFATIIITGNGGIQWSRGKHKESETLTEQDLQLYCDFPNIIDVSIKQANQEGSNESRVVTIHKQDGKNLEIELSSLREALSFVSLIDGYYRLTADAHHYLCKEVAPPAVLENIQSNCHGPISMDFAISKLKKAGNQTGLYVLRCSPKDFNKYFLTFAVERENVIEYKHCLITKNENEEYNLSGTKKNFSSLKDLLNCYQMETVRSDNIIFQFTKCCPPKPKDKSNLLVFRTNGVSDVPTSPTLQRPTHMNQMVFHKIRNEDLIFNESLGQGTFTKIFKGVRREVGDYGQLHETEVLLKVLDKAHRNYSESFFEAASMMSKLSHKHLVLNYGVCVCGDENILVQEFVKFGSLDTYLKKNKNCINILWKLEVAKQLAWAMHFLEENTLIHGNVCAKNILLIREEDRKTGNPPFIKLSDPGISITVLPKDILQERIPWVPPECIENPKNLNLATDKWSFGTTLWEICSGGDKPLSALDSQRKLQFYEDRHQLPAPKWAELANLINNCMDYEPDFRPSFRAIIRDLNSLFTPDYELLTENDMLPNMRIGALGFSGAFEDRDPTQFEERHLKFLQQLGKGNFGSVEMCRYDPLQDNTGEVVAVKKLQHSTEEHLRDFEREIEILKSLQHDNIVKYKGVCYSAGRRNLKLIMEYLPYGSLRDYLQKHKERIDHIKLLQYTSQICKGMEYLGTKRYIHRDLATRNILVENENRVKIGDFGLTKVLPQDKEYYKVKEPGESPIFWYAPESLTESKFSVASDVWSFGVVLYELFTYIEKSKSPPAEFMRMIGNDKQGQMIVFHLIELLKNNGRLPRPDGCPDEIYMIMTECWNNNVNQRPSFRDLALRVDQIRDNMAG
Method in brief: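 Time-resolved fluorescence kinase assay using 15 ng/mL baculovirus-expressed JAK2 on Neutravidin-captured biotinylated 15-mer peptide substrate, reaction 20 min at room temperature. IC50 from percent inhibition versus log concentration, sigmoidal variable-slope fit.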

baculovirus-expressed ALK, sequence (Q9UM73 19-1620): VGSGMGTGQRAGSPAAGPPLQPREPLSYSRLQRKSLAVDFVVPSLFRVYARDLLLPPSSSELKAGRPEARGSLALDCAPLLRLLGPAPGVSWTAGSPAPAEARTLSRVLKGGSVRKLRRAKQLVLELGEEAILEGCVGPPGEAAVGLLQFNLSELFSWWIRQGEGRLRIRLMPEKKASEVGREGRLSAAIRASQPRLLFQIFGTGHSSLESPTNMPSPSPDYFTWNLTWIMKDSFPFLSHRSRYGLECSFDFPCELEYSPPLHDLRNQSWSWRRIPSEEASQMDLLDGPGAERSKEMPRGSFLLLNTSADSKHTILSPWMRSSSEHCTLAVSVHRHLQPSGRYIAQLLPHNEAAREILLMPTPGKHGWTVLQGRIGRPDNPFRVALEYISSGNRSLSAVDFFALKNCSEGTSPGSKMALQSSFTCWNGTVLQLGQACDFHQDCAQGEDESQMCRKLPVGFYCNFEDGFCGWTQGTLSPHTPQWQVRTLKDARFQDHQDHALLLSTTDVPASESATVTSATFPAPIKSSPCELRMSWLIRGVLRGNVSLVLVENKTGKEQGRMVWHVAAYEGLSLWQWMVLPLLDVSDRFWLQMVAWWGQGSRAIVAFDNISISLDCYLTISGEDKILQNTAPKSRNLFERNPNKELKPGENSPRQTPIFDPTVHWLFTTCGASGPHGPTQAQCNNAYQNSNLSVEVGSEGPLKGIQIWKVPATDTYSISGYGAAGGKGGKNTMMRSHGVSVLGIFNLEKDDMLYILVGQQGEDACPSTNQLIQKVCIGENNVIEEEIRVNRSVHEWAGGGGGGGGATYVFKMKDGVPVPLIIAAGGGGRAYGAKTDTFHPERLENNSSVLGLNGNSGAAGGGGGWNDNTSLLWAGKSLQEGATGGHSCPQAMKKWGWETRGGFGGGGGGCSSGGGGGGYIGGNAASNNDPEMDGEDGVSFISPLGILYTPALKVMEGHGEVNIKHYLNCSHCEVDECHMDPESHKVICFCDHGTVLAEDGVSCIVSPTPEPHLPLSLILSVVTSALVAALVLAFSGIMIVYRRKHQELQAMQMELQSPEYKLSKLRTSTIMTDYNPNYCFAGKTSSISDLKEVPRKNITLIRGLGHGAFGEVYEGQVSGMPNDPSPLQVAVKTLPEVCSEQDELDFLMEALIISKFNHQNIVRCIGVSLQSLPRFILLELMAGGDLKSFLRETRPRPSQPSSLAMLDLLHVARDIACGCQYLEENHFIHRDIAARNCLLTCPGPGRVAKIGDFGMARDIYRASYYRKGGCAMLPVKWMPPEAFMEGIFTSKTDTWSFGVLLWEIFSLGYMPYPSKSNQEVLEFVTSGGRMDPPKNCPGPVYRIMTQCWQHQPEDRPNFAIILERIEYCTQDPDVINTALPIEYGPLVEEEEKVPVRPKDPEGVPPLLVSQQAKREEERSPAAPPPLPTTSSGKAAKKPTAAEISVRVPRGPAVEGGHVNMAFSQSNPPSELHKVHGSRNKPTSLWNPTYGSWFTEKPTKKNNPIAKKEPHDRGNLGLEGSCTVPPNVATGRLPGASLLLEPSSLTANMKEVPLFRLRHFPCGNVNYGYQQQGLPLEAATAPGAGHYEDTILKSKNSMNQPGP

| Structure (SMILES) | melting point [°C] | IC50 [1] [nM] | IC50 [2] [nM] |
| --- | --- | --- | --- |
| NC(=O)[C@@H]1[C@H](Nc2c(Br)cnc3[nH]c(-c4ccc(CN5CCOCC5)cc4)nc23)[C@H]2C=C[C@@H]1C2 (as salt: sodium) [Compound LXXX, (1S,2S,3R,4R)-3-[6-Bromo-2-(4-morpholin-4-ylmethyl-phenyl)-3H-imidazo[4,5-b]pyridin-7-ylamino]-bicyclo[2.2.1]hept-5-ene-2-carboxylic acid amide] | 217 to 219 |  |  |
| COC[C@@H](O)CN1CCC(c2ccc(-c3nc4c(N[C@H]5[C@@H](C(N)=O)[C@@H]6C=C[C@H]5C6)c(Cl)cnc4[nH]3)c(OC)c2)CC1 [Compound CXIX, (1S,2S,3R,4R)-3-(6-Chloro-2-{4-[1-((S)-2-hydroxy-3-methoxy-propyl)-piperidin-4-yl]-2-methoxy-phenyl}-3H-imidazo[4,5-b]pyridin-7-ylamino)-bicyclo[2.2.1]hept-5-ene-2-carboxylic acid amide] | 189 to 191 | < 100 | < 100 |
| COc1cc(N2CCC(N3CCN(C)CC3)CC2)ccc1-c1nc2c(N[C@H]3[C@@H](C(N)=O)[C@@H]4C=C[C@H]3C4)c(Br)cnc2[nH]1 [Compound XCVIII, (1S,2S,3R,4R)-3-(6-Bromo-2-{2-methoxy-4-[4-(4-methyl-piperazin-1-yl)-piperidin-1-yl]-phenyl}-3H-imidazo[4,5-b]pyridin-7-ylamino)-bicyclo[2.2.1]hept-5-ene-2-carboxylic acid amide] | 185 to 195 | < 100 | < 100 |
| COc1cc(CN2CCN(C(C)=O)CC2)ccc1-c1nc2c(N[C@H]3[C@@H](C(N)=O)[C@@H]4C=C[C@H]3C4)c(Cl)cnc2[nH]1 [Compound LI] | 109 to 113 | < 100 | < 100 |
| CN(C)c1ccc(-c2nc3c(N[C@H]4[C@@H](C(N)=O)[C@@H]5C=C[C@H]4C5)ccnc3[nH]2)cc1 [Compound LXXXVI, (1S,2S,3R,4R)-3-[2-(4-Dimethylamino-phenyl)-3H-imidazo[4,5-b]pyridin-7-ylamino]-bicyclo[2.2.1]hept-5-ene-2-carboxylic acid amide] | 245 to 251 | > 10000 | 1000 to 10000 |
| COc1cc(C2CCN(C[C@@H](C)O)CC2)ccc1-c1nc2c(N[C@H]3[C@@H](C(N)=O)[C@@H]4C=C[C@H]3C4)c(Cl)cnc2[nH]1 [Compound CXVI] | > 120 | < 100 | < 100 |
| NC(=O)[C@@H]1[C@H](Nc2c(Br)cnc3[nH]c(-c4ccc(N5CCOCC5)cc4)nc23)[C@H]2C=C[C@@H]1C2 [Compound LXXIX, (1S,2S,3R,4R)-3-[6-Bromo-2-(4-morpholin-4-yl-phenyl)-3H-imidazo[4,5-b]pyridin-7-ylamino]-bicyclo[2.2.1]hept-5-ene-2-carboxylic acid amide] | 283 to 284 |  | < 100 |
| COc1cc(C2CCN(C[C@@H](O)CO)CC2)ccc1-c1nc2c(N[C@H]3[C@@H](C(N)=O)[C@@H]4C=C[C@H]3C4)c(Cl)cnc2[nH]1 [Compound CXVIII, (1S,2S,3R,4R)-3-(6-Chloro-2-{4-[1-((R)-2,3-dihydroxy-propyl)-piperidin-4-yl]-2-methoxy-phenyl}-3H-imidazo[4,5-b]pyridin-7-ylamino)-bicyclo[2.2.1]hept-5-ene-2-carboxylic acid amide] | 209 to 211 | < 100 | < 100 |
| NC(=O)[C@@H]1[C@H](Nc2c(Br)cnc3[nH]c(-c4ccccc4-n4cccn4)nc23)[C@H]2C=C[C@@H]1C2 [Compound CIV, (1S,2S,3R,4R)-3-[6-Bromo-2-(2-pyrazol-1-yl-phenyl)-3H-imidazo[4,5-b]pyridin-7-ylamino]-bicyclo[2.2.1]hept-5-ene-2-carboxylic acid amide] | 120 | 1000 to 10000 | 100 to 1000 |
| CN(C)c1cccc(-c2nc3c(N[C@H]4[C@@H](C(N)=O)[C@@H]5C=C[C@H]4C5)ccnc3[nH]2)c1 [Compound LXXXVII, (1S,2S,3R,4R)-3-[2-(3-Dimethylamino-phenyl)-3H-imidazo[4,5-b]pyridin-7-ylamino]-bicyclo[2.2.1]hept-5-ene-2-carboxylic acid amide] | 200 to 204 | > 10000 | 1000 to 10000 |
| CN1CCN(c2ccc(-c3nc4c(N[C@H]5[C@@H](C(N)=O)[C@@H]6C=C[C@H]5C6)c(Br)cnc4[nH]3)cc2)CC1 [Compound LXXVIII, (1S,2S,3R,4R)-3-{6-Bromo-2-[4-(4-methyl-piperazin-1-yl)-phenyl]-3H-imidazo[4,5-b]pyridin-7-ylamino}-bicyclo[2.2.1]hept-5-ene-2-carboxylic acid amide] | 215 to 218 |  | < 100 |
| NC(=O)[C@@H]1[C@H](Nc2c(Br)cnc3[nH]c(-c4ccsc4)nc23)[C@H]2C=C[C@@H]1C2 [Compound CXI, (1S,2S,3R,4R)-3-(6-Bromo-2-thiophen-3-yl-3H-imidazo[4,5-b]pyridin-7-ylamino)-bicyclo[2.2.1]hept-5-ene-2-carboxylic acid amide] | 238 to 241 | < 100 | < 100 |
| COc1cc(C2CCN(C)CC2)ccc1-c1nc2c(N[C@H]3[C@@H](C(N)=O)[C@@H]4C=C[C@H]3C4)c(Cl)cnc2[nH]1 [Compound CXVII, (1S,2S,3R,4R)-3-{6-Chloro-2-[2-methoxy-4-(1-methyl-piperidin-4-yl)-phenyl]-3H-imidazo[4,5-b]pyridin-7-ylamino}-bicyclo[2.2.1]hept-5-ene-2-carboxylic acid amide] | 232 to 235 | < 100 | < 100 |
| COc1c(CN2CCOCC2)cccc1-c1nc2c(N[C@H]3[C@@H](C(N)=O)[C@@H]4C=C[C@H]3C4)c(Cl)cnc2[nH]1 [Compound LIII, (1S,2S,3R,4R)-3-[6-Chloro-2-(2-methoxy-3-morpholin-4-ylmethyl-phenyl)-3H-imidazo[4,5-b]pyridine-7-ylamino]-bicyclo[2.2.1]hept-5-ene-2-carboxylic acid amide] | 133 to 137 | < 100 | < 100 |
| CC(C)(C)OC(=O)N1CCC(c2nc3c(N[C@H]4[C@@H](C(N)=O)[C@@H]5C=C[C@H]4C5)c(Cl)cnc3[nH]2)CC1 [Compound CCXV, tert-butyl 4-(7-((1R,2R,3S,4S)-3-carbamoylbicyclo[2.2.1]hept-5-en-2-ylamino)-6-chloro-3H-imidazo[4,5-b]pyridin-2-yl)piperidine-1-carboxylate] |  | 1000 to 10000 | 1000 to 10000 |
| COc1cc(CN2CCOCC2)ccc1-c1nc2c(N[C@@H]3CCCC[C@H]3NS(C)(=O)=O)c(Cl)cnc2[nH]1 [Compound LXX, N-{(1R,2R)-2-[6-Chloro-2-(2-methoxy-4-morpholin-4-ylmethyl-phenyl)-3H-imidazo[4,5-b]pyridine-7-ylamino]-cyclohexyl}-methanesulfonamide] |  | < 100 | 1000 to 10000 |
| CN(C)CCOc1ccc(-c2nc3c(N[C@H]4[C@@H](C(=O)N(C)C)[C@@H]5C=C[C@H]4C5)c(Cl)cnc3[nH]2)cc1 [Compound CLXXVII, (1S,2S,3R,4R)-3-[6-Chloro-2-[4-(2-dimethylamino-ethoxy)-phenyl]-3H-imidazo[4,5-b]pyridin-7-ylamino]-bicyclo[2.2.1]hept-5-ene-2-carboxylic acid dimethylamide] |  | 100 to 1000 | < 100 |
| NC(=O)[C@@H]1[C@H](Nc2c(Cl)cnc3[nH]c(-c4ccc(N5CCNCC5)cc4)nc23)[C@H]2C=C[C@@H]1C2 [Compound XV, (1S,2S,3R,4R)-3-[6-Chloro-2-(4-piperazin-1-yl-phenyl)-3H-imidazo[4,5-b]pyridin-7-ylamino]-bicyclo[2.2.1]hept-5-ene-2-carboxylic acid amide trifluoroacetic acid salt] |  | < 100 | < 100 |
| NC(=O)[C@@H]1[C@H](Nc2c(Br)cnc3[nH]c(-c4ccc(N5CCOCC5)cc4Cl)nc23)[C@H]2C=C[C@@H]1C2 [Compound CXXXIV, (1S,2S,3R,4R)-3-[6-Bromo-2-(2-chloro-4-morpholin-4-yl-phenyl)-3H-imidazo[4,5-b]pyridin-7-ylamino]-bicyclo[2.2.1]hept-5-ene-2-carboxylic acid amide] |  | < 100 | < 100 |
| CC(O)CN1CCN(C(=O)COc2cccc(-c3nc4c(N[C@H]5[C@@H](C(N)=O)[C@@H]6C=C[C@H]5C6)c(Cl)cnc4[nH]3)c2)CC1 (stereo partly drawn) [Compound CCXLI, (1S,2S,3R,4R)-3-(6-chloro-2-(3-(2-(4-(2-hydroxypropyl)piperazin-1-yl)-2-oxoethoxy)phenyl)-3H-imidazo[4,5-b]pyridin-7-ylamino)bicyclo[2.2.1]hept-5-ene-2-carboxamide] |  | 100 to 1000 | < 100 |
| COc1cc(N2CCC(N3CCN(C)CC3)CC2)ccc1-c1nc2c(N[C@@H]3CCCC[C@H]3NS(C)(=O)=O)c(Cl)cnc2[nH]1 [CCLIII] |  | < 100 | 1000 to 10000 |
| COc1ncc(-c2nc3c(N[C@H]4[C@@H](C(N)=O)[C@@H]5C=C[C@H]4C5)c(Cl)cnc3[nH]2)s1 [Compound CCIX, (1S,2S,3R,4R)-3-(6-chloro-2-(2-methoxythiazol-5-yl)-3H-imidazo[4,5-b]pyridin-7-ylamino)bicyclo[2.2.1]hept-5-ene-2-carboxamide] |  | 100 to 1000 | < 100 |
| CC(=O)N1CCC(n2cc(-c3nc4c(N[C@H]5[C@@H](C(N)=O)[C@@H]6C=C[C@H]5C6)c(Cl)cnc4[nH]3)cn2)CC1 [Compound LXI, (1S,2S,3R,4R)-3-{2-[1-(1-Acetyl-piperidin-4-yl)-1H-pyrazol-4-yl]-6-chloro-3H-imidazo[4,5-b]pyridine-7-ylamino}-bicyclo[2.2.1]hept-5-ene-2-carboxylic acid amide] |  | 100 to 1000 | < 100 |
